According to patent US10934274B2, “Quinoline derivatives as TAM RTK inhibitors” (Qurient Co., Ltd., priority 2015, dated 2021):

Assays:
TYRO3 = biological target: T1, TYRO3 (Homo sapiens, UniProt Q06418); assay: LanthaScreen Eu kinase binding assay, TYRO3; details: Tracer 236
T1 construct: purchased Life Technologies
T1 sequence (Q06418 41-890): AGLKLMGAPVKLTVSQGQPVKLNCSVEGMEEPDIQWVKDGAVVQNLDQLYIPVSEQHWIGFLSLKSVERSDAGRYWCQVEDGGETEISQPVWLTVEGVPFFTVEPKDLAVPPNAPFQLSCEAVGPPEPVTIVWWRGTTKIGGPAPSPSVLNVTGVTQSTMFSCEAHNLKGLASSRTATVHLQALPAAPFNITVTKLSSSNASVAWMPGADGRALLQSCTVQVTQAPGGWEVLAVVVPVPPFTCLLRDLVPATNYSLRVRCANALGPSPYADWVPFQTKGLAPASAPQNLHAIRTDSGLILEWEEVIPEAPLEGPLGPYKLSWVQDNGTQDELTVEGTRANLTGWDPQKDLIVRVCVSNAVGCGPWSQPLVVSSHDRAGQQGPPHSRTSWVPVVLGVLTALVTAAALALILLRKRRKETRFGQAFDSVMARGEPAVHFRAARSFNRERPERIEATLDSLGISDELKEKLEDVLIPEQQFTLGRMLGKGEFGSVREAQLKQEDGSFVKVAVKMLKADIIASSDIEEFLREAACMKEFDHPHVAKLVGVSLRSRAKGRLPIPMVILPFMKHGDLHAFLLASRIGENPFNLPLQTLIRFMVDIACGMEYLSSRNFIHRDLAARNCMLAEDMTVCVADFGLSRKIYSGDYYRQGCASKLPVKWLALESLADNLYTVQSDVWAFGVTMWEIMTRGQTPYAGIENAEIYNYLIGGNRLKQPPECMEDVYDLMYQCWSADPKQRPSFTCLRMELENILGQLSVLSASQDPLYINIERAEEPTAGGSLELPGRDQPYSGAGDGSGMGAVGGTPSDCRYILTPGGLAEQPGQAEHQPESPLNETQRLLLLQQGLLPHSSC

Axl = biological target: T2, Axl (Homo sapiens, UniProt P30530); assay: LanthaScreen Eu kinase binding assay, Axl; details: Tracer 236
T2 construct: purchased Life Technologies
T2 sequence (P30530 26-894): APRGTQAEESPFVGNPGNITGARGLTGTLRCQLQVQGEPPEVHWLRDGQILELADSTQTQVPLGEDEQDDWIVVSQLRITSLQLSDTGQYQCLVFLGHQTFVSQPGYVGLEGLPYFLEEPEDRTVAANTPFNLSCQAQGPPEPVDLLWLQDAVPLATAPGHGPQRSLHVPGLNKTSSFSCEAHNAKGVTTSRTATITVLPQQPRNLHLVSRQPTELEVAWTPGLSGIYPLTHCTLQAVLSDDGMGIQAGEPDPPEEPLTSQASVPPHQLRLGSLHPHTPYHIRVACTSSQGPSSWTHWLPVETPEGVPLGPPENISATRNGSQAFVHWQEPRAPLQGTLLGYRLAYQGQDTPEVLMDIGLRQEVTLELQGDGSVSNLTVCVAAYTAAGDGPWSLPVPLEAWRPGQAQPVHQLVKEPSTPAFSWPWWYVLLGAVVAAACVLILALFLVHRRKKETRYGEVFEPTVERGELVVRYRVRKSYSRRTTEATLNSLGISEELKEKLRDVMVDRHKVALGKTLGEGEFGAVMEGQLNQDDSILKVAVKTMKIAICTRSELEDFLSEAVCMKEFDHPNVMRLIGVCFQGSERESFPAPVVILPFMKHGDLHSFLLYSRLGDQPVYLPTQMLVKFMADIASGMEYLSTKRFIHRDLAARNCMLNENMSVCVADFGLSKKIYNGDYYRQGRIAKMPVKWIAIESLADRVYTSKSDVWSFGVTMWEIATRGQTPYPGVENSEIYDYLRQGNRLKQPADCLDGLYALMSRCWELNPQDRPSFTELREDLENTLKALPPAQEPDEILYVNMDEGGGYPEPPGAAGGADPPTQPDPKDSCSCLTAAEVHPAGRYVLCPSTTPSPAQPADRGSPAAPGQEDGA

| Structure (SMILES) | Kd (TYRO3) [nM] | Kd (Axl) [nM] |
| --- | --- | --- |
| CCOc1cn(C2CCCC2)nc1C(=O)Nc1ccc(Oc2ccnc3cc(OC)c(OC)cc23)cn1 [Compound 3] | < 100 | < 100 |
| CCOc1cn(-c2ccccn2)nc1C(=O)Nc1ccc(Oc2ccnc3cc(OC)c(OC)cc23)cn1 [Compound 4] | 100 to 1000 | < 100 |
| CCOc1cn(-c2cccnn2)nc1C(=O)Nc1ccc(Oc2ccnc3cc(OC)c(OC)cc23)cn1 [Compound 5] | < 100 | < 100 |
| CCOc1cn(C2CCOC2)nc1C(=O)Nc1ccc(Oc2ccnc3cc(OC)c(OC)cc23)cn1 (stereo not shown) [Compound 76] | < 100 | < 100 |
| CCOc1cn(-c2cnccc2C)nc1C(=O)Nc1ccc(Oc2ccnc3cc(OC)c(OC)cc23)cn1 [Compound 79] | < 100 | < 100 |
| CCOc1cn(CCC#N)nc1C(=O)Nc1ccc(Oc2ccnc3cc(OC)c(OC)cc23)cn1 [Compound 80] | 100 to 1000 | < 100 |
| CCOc1cn(C(C)CC#N)nc1C(=O)Nc1ccc(Oc2ccnc3cc(OC)c(OC)cc23)cn1 (stereo not shown) [Compound 81] | 100 to 1000 | < 100 |
| CCOc1cn(-c2ccc(F)cc2C)nc1C(=O)Nc1ccc(Oc2ccnc3cc(OC)c(OC)cc23)c(Cl)c1 [Compound 82] | < 100 | < 100 |

The remaining lines, values ahead:

| Kd (TYRO3) [nM] | Kd (Axl) [nM] | Structure (SMILES) |
| --- | --- | --- |
| 100 to 1000 | < 100 | CCOc1cn(-c2cccnc2)nc1C(=O)Nc1ccc(Oc2ccnc3cc(OC)c(OC)cc23)cc1F [Compound 85] |
| 100 to 1000 | < 100 | CCOc1cn(CCOC(F)F)nc1C(=O)Nc1ccc(Oc2ccnc3cc(OC)c(OC)cc23)cn1 [Compound 86] |
| < 100 | < 100 | CCOc1cn(-c2ccc(Cl)cc2C)nc1C(=O)Nc1ccc(Oc2ccnc3cc(OC)c(OC)cc23)cn1 [Compound 87] |
| < 100 | < 100 | CCOc1cn(-c2ccc(F)cc2)nc1C(=O)Nc1ccc(Oc2ccnc3cc(OC)c(OC)cc23)cn1 [Compound 89] |
| < 100 | < 100 | CCOc1cn(-c2c(C)cc(OC)cc2C)nc1C(=O)Nc1ccc(Oc2ccnc3cc(OC)c(OC)cc23)cn1 [Compound 92] |
| 100 to 1000 | < 100 | CCOc1cn(-c2ncc(N)cn2)nc1C(=O)Nc1ccc(Oc2ccnc3cc(OC)c(OC)cc23)cn1 [Compound 93] |
